{
  "source": "ChEMBL document CHEMBL4507274",
  "about": "(2021)",
  "key": {"[1]": {"species": "Rattus norvegicus", "settings": "Compound concentration 10.0 uM"}, "[2]": {"molecular_target": "Cyclin-dependent kinase 2/cyclin A (Homo sapiens) (UniProt P24941+P20248+P78396)", "assay": "CDK2/ cyclin A (h) Upstate kinase activity assay", "type": "protein-complex assay", "settings": "Compound concentration 10.0 uM"}, "[3]": {"molecular_target": "SNF-related serine/threonine-protein kinase (Homo sapiens) (UniProt Q9NRH2)", "settings": "Compound concentration 100.0 nM"}, "[4]": {"system": "Tyrosine-protein kinase ABL1 (Homo sapiens), P00519 [M351T]", "settings": "Compound concentration 100.0 nM"}, "[5]": {"molecular_target": "Serine/threonine-protein kinase SIK1 (Homo sapiens) (UniProt P57059)", "settings": "Compound concentration 100.0 nM"}, "[6]": {"molecular_target": "cGMP-dependent protein kinase 1 (Homo sapiens) (UniProt Q13976)", "settings": "Compound concentration 100.0 nM"}, "[7]": {"molecular_target": "Serine/threonine-protein kinase B-raf (Homo sapiens) (UniProt P15056)", "sequence (P15056 whole entry)": "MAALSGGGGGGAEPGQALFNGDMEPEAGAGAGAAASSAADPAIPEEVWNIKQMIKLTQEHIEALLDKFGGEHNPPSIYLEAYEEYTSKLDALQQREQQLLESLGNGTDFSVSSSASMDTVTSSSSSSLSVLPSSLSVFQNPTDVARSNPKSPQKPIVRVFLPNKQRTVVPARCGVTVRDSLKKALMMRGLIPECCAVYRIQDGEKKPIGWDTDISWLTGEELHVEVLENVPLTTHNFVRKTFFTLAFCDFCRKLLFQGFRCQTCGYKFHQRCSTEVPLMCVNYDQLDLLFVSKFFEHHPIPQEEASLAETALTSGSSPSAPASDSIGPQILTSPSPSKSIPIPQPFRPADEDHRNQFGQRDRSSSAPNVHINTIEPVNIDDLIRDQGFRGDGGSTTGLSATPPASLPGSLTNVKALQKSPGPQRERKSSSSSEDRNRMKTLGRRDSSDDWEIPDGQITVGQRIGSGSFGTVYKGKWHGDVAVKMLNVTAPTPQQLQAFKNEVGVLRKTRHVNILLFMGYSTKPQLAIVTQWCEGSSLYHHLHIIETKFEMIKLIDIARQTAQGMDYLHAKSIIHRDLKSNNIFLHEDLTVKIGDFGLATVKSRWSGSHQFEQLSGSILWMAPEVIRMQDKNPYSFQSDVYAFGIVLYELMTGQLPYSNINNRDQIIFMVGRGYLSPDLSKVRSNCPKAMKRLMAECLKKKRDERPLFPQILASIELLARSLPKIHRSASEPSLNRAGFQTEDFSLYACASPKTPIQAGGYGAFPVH", "settings": "Compound concentration 100.0 nM"}, "[8]": {"molecular_target": "Activated CDC42 kinase 1 (Homo sapiens) (UniProt Q07912)", "sequence (Q07912 whole entry, looked up)": "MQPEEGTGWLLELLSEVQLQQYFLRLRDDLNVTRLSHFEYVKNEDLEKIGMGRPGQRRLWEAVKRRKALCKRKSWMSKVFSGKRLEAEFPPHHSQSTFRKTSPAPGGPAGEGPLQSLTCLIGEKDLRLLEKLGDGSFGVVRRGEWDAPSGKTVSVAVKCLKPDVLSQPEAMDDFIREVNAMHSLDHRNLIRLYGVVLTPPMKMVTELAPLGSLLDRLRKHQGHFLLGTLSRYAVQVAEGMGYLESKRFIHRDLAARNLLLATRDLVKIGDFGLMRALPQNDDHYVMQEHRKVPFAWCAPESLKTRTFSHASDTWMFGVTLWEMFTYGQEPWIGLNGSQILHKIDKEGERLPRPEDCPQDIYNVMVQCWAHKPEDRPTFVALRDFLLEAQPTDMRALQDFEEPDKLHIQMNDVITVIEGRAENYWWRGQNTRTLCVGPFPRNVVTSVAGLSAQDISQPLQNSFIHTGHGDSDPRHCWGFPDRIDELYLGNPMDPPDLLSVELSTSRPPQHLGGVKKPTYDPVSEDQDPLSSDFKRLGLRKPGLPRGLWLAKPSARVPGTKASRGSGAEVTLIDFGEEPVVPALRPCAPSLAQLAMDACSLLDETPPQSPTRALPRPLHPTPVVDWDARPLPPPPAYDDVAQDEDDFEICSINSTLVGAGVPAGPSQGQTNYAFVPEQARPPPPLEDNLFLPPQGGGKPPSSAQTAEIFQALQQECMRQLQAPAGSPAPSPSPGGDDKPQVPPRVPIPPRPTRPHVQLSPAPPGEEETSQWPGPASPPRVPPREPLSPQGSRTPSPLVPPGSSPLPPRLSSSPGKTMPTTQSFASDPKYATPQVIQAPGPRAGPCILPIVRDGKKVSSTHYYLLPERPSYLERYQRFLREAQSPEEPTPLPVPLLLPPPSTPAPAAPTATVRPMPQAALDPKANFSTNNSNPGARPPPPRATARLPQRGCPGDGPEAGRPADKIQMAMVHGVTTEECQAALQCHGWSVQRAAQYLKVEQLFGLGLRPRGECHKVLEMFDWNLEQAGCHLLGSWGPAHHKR", "settings": "Compound concentration 100.0 nM"}, "[9]": {"molecular_target": "Ribosomal protein S6 kinase alpha-4 (Homo sapiens) (UniProt O75676)", "sequence (O75676 whole entry, looked up)": "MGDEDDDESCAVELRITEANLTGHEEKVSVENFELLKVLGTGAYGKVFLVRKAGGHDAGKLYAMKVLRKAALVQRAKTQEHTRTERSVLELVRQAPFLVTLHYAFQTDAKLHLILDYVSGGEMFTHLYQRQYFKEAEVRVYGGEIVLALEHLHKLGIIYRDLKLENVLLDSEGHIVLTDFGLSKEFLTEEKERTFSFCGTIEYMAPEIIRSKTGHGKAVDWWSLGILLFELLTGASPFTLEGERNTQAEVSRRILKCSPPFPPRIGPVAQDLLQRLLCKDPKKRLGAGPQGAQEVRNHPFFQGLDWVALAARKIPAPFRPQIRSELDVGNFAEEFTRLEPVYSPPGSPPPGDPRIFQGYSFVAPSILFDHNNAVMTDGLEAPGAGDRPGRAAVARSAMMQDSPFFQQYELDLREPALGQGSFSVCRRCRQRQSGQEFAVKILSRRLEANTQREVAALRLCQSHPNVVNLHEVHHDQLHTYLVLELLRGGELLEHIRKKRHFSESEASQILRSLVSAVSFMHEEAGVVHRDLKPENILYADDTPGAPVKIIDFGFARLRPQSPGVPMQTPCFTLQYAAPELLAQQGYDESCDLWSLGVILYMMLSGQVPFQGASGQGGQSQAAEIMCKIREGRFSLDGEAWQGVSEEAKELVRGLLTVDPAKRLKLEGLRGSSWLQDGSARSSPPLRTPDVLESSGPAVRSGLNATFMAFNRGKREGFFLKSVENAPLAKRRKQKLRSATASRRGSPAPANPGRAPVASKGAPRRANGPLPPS", "settings": "Compound concentration 100.0 nM"}, "[10]": {"molecular_target": "Calcium/calmodulin-dependent protein kinase kinase 2 (Homo sapiens) (UniProt Q96RR4)", "sequence (Q96RR4 2-588 limits assumed)": "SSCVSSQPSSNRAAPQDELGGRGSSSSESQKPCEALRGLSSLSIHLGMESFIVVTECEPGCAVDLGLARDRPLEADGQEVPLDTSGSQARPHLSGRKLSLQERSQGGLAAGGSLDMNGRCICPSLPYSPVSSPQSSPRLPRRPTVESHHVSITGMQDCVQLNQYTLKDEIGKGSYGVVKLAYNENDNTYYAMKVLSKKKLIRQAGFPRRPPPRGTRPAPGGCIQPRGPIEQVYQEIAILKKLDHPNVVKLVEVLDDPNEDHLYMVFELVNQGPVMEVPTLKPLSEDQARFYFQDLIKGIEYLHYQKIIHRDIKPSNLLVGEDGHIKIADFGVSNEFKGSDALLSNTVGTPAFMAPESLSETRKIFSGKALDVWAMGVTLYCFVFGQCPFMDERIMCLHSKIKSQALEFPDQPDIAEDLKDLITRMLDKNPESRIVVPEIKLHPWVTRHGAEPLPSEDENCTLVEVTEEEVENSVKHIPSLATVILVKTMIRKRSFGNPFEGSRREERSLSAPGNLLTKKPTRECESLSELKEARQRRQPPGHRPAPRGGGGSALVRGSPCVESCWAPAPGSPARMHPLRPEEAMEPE", "settings": "Compound concentration 100.0 nM"}, "[11]": {"molecular_target": "Tyrosine-protein kinase receptor UFO (Homo sapiens) (UniProt P30530)", "settings": "Compound concentration 100.0 nM"}, "[12]": {"molecular_target": "Mitogen-activated protein kinase kinase kinase 15 (Homo sapiens) (UniProt Q6ZN16)", "settings": "Compound concentration 100.0 nM"}, "[13]": {"molecular_target": "Delta-type opioid receptor (Homo sapiens) (UniProt P41143)", "sequence (P41143 whole entry)": "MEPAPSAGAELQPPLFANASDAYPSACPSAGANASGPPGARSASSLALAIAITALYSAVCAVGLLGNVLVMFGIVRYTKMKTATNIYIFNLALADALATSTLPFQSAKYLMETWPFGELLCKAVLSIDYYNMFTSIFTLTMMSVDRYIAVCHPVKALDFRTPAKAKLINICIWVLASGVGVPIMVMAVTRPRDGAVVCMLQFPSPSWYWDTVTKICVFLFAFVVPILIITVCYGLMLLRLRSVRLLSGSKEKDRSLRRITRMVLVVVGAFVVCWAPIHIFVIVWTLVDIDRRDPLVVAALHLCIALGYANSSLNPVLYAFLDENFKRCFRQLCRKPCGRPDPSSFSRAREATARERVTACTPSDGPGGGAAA", "settings": "Compound concentration 10.0 uM"}, "[14]": {"molecular_target": "Serine/threonine-protein kinase pim-3 (Homo sapiens) (UniProt Q86V86)", "settings": "Compound concentration 100.0 nM"}, "[15]": {"molecular_target": "Serine/threonine-protein kinase Chk2 (Homo sapiens) (UniProt O96017)", "assay": "CHK2 (h) Upstate kinase activity assay", "settings": "Compound concentration 10.0 uM"}, "[16]": {"molecular_target": "Tyrosine-protein kinase Yes (Homo sapiens) (UniProt P07947)", "assay": "Yes (h) Upstate kinase activity assay", "settings": "Compound concentration 10.0 uM"}, "[17]": {"molecular_target": "Insulin receptor (Homo sapiens) (UniProt P06213)", "assay": "IR (h) Upstate kinase activity assay", "settings": "Compound concentration 10.0 uM"}, "[18]": {"molecular_target": "T1, Serine/threonine-protein kinase Nek2 (Homo sapiens) (UniProt P51955)", "T1 sequence (whole entry)": "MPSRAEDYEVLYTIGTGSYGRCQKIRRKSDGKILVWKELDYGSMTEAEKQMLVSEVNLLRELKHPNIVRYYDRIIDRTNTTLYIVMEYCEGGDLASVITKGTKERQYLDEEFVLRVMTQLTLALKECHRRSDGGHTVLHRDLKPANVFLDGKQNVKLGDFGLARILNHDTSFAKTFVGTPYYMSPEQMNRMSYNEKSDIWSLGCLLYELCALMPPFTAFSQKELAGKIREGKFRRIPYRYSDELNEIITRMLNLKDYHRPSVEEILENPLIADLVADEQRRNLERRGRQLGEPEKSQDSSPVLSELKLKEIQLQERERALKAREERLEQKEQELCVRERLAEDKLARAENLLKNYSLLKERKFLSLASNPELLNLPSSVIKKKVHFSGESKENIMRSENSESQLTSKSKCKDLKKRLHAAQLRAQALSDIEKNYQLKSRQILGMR", "assay": "NEK2 (h) Upstate kinase activity assay", "settings": "Compound concentration 10.0 uM"}, "[19]": {"molecular_target": "Serine/threonine-protein kinase MARK2 (Homo sapiens) (UniProt Q7KZI7)", "assay": "PAR-1Balpha (h) Upstate kinase activity assay", "settings": "Compound concentration 10.0 uM"}, "[20]": {"molecular_target": "Tyrosine-protein kinase Blk (Mus musculus) (UniProt P16277)", "assay": "Blk (m) Upstate kinase activity assay", "settings": "Compound concentration 10.0 uM"}, "[21]": {"molecular_target": "Phosphatidylinositol 4,5-bisphosphate 3-kinase catalytic subunit alpha isoform (Homo sapiens) (UniProt P42336)", "sequence (P42336 whole entry, canonical isoform)": "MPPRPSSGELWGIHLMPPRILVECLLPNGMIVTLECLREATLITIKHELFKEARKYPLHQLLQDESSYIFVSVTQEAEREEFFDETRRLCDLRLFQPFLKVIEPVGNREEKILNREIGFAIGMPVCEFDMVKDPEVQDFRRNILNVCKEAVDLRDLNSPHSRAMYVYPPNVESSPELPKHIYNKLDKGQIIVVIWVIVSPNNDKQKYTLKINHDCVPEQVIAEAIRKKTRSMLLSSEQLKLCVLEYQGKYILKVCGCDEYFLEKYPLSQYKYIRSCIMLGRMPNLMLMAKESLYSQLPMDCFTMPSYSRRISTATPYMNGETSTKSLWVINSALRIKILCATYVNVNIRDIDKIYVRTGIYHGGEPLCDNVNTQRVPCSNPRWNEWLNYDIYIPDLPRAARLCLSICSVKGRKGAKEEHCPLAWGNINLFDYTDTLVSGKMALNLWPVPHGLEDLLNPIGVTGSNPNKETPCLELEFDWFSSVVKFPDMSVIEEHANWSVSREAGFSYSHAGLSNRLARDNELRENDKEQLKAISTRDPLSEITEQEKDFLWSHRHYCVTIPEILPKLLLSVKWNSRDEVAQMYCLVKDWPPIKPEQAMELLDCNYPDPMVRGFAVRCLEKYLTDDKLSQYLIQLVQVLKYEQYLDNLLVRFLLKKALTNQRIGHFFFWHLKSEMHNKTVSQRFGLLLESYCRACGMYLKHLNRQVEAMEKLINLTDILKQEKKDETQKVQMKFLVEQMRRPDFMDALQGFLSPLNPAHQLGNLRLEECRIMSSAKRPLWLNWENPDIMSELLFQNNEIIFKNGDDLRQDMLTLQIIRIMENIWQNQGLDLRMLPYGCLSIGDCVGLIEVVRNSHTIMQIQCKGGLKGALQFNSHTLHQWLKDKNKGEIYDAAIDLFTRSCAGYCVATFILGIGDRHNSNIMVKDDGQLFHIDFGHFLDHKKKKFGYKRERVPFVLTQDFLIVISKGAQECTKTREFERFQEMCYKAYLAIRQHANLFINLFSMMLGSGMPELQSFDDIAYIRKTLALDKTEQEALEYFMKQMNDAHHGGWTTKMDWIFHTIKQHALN", "assay": "PIK3 (h) Upstate kinase activity assay", "settings": "Compound concentration 10.0 uM"}, "[22]": {"molecular_target": "Serine/threonine-protein kinase Nek11 (Homo sapiens) (UniProt Q8NG66)", "settings": "Compound concentration 100.0 nM"}, "[23]": {"molecular_target": "Phosphatidylinositol 4,5-bisphosphate 3-kinase catalytic subunit alpha isoform (Homo sapiens) (UniProt P42336)", "settings": "Compound concentration 100.0 nM"}, "[24]": {"molecular_target": "Vascular endothelial growth factor receptor 1 (Homo sapiens) (UniProt P17948)", "settings": "Compound concentration 100.0 nM"}, "[25]": {"molecular_target": "Cyclin-dependent kinase 5/CDK5 activator 1 (Homo sapiens) (UniProt Q00535+Q15078)", "assay": "CDK5/ p35 (h) Upstate kinase activity assay", "type": "protein-complex assay", "settings": "Compound concentration 10.0 uM"}, "[26]": {"molecular_target": "Tyrosine-protein kinase ABL2 (Mus musculus) (UniProt Q4JIM5)", "assay": "Arg (m) Upstate kinase activity assay", "settings": "Compound concentration 10.0 uM"}, "[27]": {"molecular_target": "Tyrosine-protein kinase ABL1 (Mus musculus) (UniProt P00520)", "assay": "Abl (m) Upstate kinase activity assay", "settings": "Compound concentration 10.0 uM"}, "[28]": {"molecular_target": "AMP-activated protein kinase, AMPK (Rattus norvegicus) (UniProt P54645+Q09137+P80386+P80385+Q9QZH4+Q6V7V4+D4A7E4)", "assay": "AMPK (r) Upstate kinase activity assay", "type": "protein-complex assay", "settings": "Compound concentration 10.0 uM"}, "[29]": {"molecular_target": "BDNF/NT-3 growth factors receptor (Homo sapiens) (UniProt Q16620)", "assay": "TrkB (h) Upstate kinase activity assay", "settings": "Compound concentration 10.0 uM"}, "[30]": {"molecular_target": "High affinity nerve growth factor receptor (Homo sapiens) (UniProt P04629)", "settings": "Compound concentration 10.0 uM"}, "[31]": {"molecular_target": "Proto-oncogene tyrosine-protein kinase receptor Ret (Homo sapiens) (UniProt P07949)", "assay": "Ret (h) Upstate kinase activity assay", "settings": "Compound concentration 10.0 uM"}, "[32]": {"molecular_target": "Angiopoietin-1 receptor (Homo sapiens) (UniProt Q02763)", "settings": "Compound concentration 100.0 nM"}, "[33]": {"molecular_target": "Serine/threonine-protein kinase Nek6 (Homo sapiens) (UniProt Q9HC98)", "sequence (Q9HC98 whole entry)": "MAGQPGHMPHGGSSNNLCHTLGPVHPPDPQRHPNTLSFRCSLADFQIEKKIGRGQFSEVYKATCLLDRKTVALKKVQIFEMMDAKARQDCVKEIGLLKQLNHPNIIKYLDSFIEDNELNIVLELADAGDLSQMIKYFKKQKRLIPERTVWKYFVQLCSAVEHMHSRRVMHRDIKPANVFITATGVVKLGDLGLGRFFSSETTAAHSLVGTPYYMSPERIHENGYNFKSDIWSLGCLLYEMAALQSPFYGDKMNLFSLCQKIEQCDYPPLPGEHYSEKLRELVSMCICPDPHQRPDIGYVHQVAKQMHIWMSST", "settings": "Compound concentration 100.0 nM"}, "[34]": {"molecular_target": "Protein kinase C gamma type (Homo sapiens) (UniProt P05129)", "assay": "PKCgamma (h) Upstate kinase activity assay", "settings": "Compound concentration 10.0 uM"}, "[35]": {"molecular_target": "Protein kinase C zeta type (Homo sapiens) (UniProt Q05513)", "assay": "PKCzeta (h) Upstate kinase activity assay", "settings": "Compound concentration 10.0 uM"}, "[36]": {"molecular_target": "Mitogen-activated protein kinase kinase kinase 9 (Homo sapiens) (UniProt P80192)", "settings": "Compound concentration 100.0 nM"}, "[37]": {"molecular_target": "cGMP-dependent protein kinase 2 (Homo sapiens) (UniProt Q13237)", "settings": "Compound concentration 100.0 nM"}, "[38]": {"system": "Epidermal growth factor receptor (Homo sapiens), P00533 [L861Q]", "settings": "Compound concentration 100.0 nM"}},
  "data": [
    {"smiles": "Cc1c[nH]c2nccc(Oc3c(F)cc(Nc4cc(Cl)nc(N)n4)cc3F)c12", "note": "[BAY-549]", "values": [
      {"measurement": "inhibition", "setting": "[1]", "value": 24.9, "unit": "%"},
      {"measurement": "inhibition", "setting": "[2]", "value": 20, "unit": "%"},
      {"measurement": "residual activity", "setting": "[3]", "value": 77, "unit": "%"},
      {"measurement": "residual activity", "setting": "[4]", "value": 83, "unit": "%"},
      {"measurement": "residual activity", "setting": "[5]", "value": 98, "unit": "%"},
      {"measurement": "residual activity", "setting": "[6]", "value": 49, "unit": "%"},
      {"measurement": "residual activity", "setting": "[7]", "value": 98, "unit": "%"},
      {"measurement": "residual activity", "setting": "[8]", "value": 95, "unit": "%"},
      {"measurement": "residual activity", "setting": "[9]", "value": 83, "unit": "%"},
      {"measurement": "residual activity", "setting": "[10]", "value": 98, "unit": "%"},
      {"measurement": "residual activity", "setting": "[11]", "value": 93, "unit": "%"},
      {"measurement": "residual activity", "setting": "[12]", "value": 94, "unit": "%"},
      {"measurement": "inhibition", "setting": "[13]", "value": 7.96, "unit": "%"},
      {"measurement": "residual activity", "setting": "[14]", "value": 100, "unit": "%"},
      {"measurement": "inhibition", "setting": "[15]", "value": 64, "unit": "%"},
      {"measurement": "inhibition", "setting": "[16]", "value": 23, "unit": "%"},
      {"measurement": "inhibition", "setting": "[17]", "value": 59, "unit": "%"},
      {"measurement": "inhibition", "setting": "[18]", "value": 19, "unit": "%"},
      {"measurement": "inhibition", "setting": "[19]", "value": 33, "unit": "%"},
      {"measurement": "inhibition", "setting": "[20]", "value": 16, "unit": "%"},
      {"measurement": "inhibition", "setting": "[21]", "value": -3, "unit": "%"},
      {"measurement": "residual activity", "setting": "[22]", "value": 75, "unit": "%"},
      {"measurement": "residual activity", "setting": "[23]", "value": 83, "unit": "%"},
      {"measurement": "residual activity", "setting": "[24]", "value": 100, "unit": "%"},
      {"measurement": "inhibition", "setting": "[25]", "value": 7, "unit": "%"},
      {"measurement": "inhibition", "setting": "[26]", "value": 36, "unit": "%"},
      {"measurement": "inhibition", "setting": "[27]", "value": 33, "unit": "%"},
      {"measurement": "inhibition", "setting": "[28]", "value": 8, "unit": "%"},
      {"measurement": "inhibition", "setting": "[29]", "value": 84, "unit": "%"},
      {"measurement": "inhibition", "setting": "[30]", "value": 99, "unit": "%"},
      {"measurement": "inhibition", "setting": "[31]", "value": 52, "unit": "%"},
      {"measurement": "residual activity", "setting": "[32]", "value": 95, "unit": "%"},
      {"measurement": "residual activity", "setting": "[33]", "value": 99, "unit": "%"},
      {"measurement": "inhibition", "setting": "[34]", "value": 33, "unit": "%"},
      {"measurement": "inhibition", "setting": "[35]", "value": -7, "unit": "%"},
      {"measurement": "residual activity", "setting": "[36]", "value": 89, "unit": "%"},
      {"measurement": "residual activity", "setting": "[37]", "value": 90, "unit": "%"}
    ]},
    {"smiles": "Cn1cc(Cl)c2c(Oc3c(F)cc(Nc4cc(Cl)nc(N)n4)cc3F)ccnc21", "note": "[BAY-4900]", "values": [
      {"measurement": "residual activity", "setting": "[3]", "value": 86, "unit": "%"},
      {"measurement": "residual activity", "setting": "[4]", "value": 90, "unit": "%"},
      {"measurement": "residual activity", "setting": "[5]", "value": 100, "unit": "%"},
      {"measurement": "residual activity", "setting": "[6]", "value": 83, "unit": "%"},
      {"measurement": "residual activity", "setting": "[7]", "value": 100, "unit": "%"},
      {"measurement": "residual activity", "setting": "[8]", "value": 85, "unit": "%"},
      {"measurement": "residual activity", "setting": "[9]", "value": 100, "unit": "%"},
      {"measurement": "residual activity", "setting": "[10]", "value": 99, "unit": "%"},
      {"measurement": "residual activity", "setting": "[11]", "value": 100, "unit": "%"},
      {"measurement": "residual activity", "setting": "[12]", "value": 84, "unit": "%"},
      {"measurement": "inhibition", "setting": "[13]", "value": -5.39, "unit": "%"},
      {"measurement": "residual activity", "setting": "[14]", "value": 100, "unit": "%"},
      {"measurement": "residual activity", "setting": "[22]", "value": 85, "unit": "%"},
      {"measurement": "residual activity", "setting": "[23]", "value": 79, "unit": "%"},
      {"measurement": "residual activity", "setting": "[24]", "value": 100, "unit": "%"},
      {"measurement": "residual activity", "setting": "[38]", "value": 100, "unit": "%"},
      {"measurement": "residual activity", "setting": "[32]", "value": 100, "unit": "%"},
      {"measurement": "residual activity", "setting": "[33]", "value": 100, "unit": "%"},
      {"measurement": "residual activity", "setting": "[36]", "value": 96, "unit": "%"},
      {"measurement": "residual activity", "setting": "[37]", "value": 83, "unit": "%"}
    ]}
  ]
}
